Assay results as given in ChEMBL document CHEMBL3872259, “Synthesis, characterization, and in vitro SAR evaluation of N,N'-bis(arylmethyl)-C2-alkyl substituted imidazolium salts” (Bioorg Med Chem Lett, 2017).

Experiments:
[1] = Antiproliferative activity against human A549 cells assessed as reduction in cell viability measured after 72 hrs by MTT assay; assay type: functional, cell-based; settings: A549, 72 h
[2] = Growth inhibition of human HOP92 cells measured after 48 hrs by sulforhodamine B assay; assay type: functional; settings: HOP-92, 48 h; for CC50: read-out: LC50 (the source's name)
[3] = Growth inhibition of human NCI-H322M cells measured after 48 hrs by sulforhodamine B assay; assay type: functional; settings: for CC50: read-out: LC50 (the source's name)
[4] = Growth inhibition of human NCI-H226 cells measured after 48 hrs by sulforhodamine B assay; assay type: functional; settings: NCI-H226, 48 h; for CC50: read-out: LC50 (the source's name)
[5] = Antiproliferative activity against human HOP92 cells assessed as cell growth at 10 uM measured after 48 hrs by sulforhodamine B assay relative to control; assay type: functional; settings: HOP-92, 48 h, read-out: Activity
[6] = Antiproliferative activity against human HCC827 cells assessed as reduction in cell viability measured after 72 hrs by MTT assay; assay type: functional, cell-based; settings: HCC827, 72 h
[7] = Antiproliferative activity against human A549/ATCC cells assessed as cell growth at 10 uM measured after 48 hrs by sulforhodamine B assay relative to control; assay type: functional; settings: A549, 48 h, read-out: Activity
[8] = Antiproliferative activity against human EKVX cells assessed as cell growth at 10 uM measured after 48 hrs by sulforhodamine B assay relative to control; assay type: functional; settings: read-out: Activity
[9] = Growth inhibition of human NCI-H522 cells measured after 48 hrs by sulforhodamine B assay; assay type: functional; settings: NCI-H522, 48 h
[10] = Growth inhibition of human NCI-H23 cells measured after 48 hrs by sulforhodamine B assay; assay type: functional; settings: NCI-H23, 48 h; for CC50: read-out: LC50 (the source's name)
[11] = Growth inhibition of human HOP62 cells measured after 48 hrs by sulforhodamine B assay; assay type: functional; settings: HOP-62, 48 h; for CC50: read-out: LC50 (the source's name)
[12] = Growth inhibition of human EKVX cells measured after 48 hrs by sulforhodamine B assay; assay type: functional; settings: for CC50: read-out: LC50 (the source's name)
[13] = Antiproliferative activity against human NCI-H522 cells assessed as cell growth at 10 uM measured after 48 hrs by sulforhodamine B assay relative to control; assay type: functional; settings: NCI-H522, 48 h, read-out: Activity
[14] = Antiproliferative activity against human NCI-H1975 cells assessed as reduction in cell viability measured after 72 hrs by MTT assay; assay type: functional, cell-based; settings: NCI-H1975, 72 h
[15] = Antiproliferative activity against human HOP62 cells assessed as cell growth at 10 uM measured after 48 hrs by sulforhodamine B assay relative to control; assay type: functional; settings: HOP-62, 48 h, read-out: Activity
[16] = Antiproliferative activity against human NCI-H322M cells assessed as cell growth at 10 uM measured after 48 hrs by sulforhodamine B assay relative to control; assay type: functional; settings: read-out: Activity
[17] = Antiproliferative activity against human NCI-H460 cells assessed as cell growth at 10 uM measured after 48 hrs by sulforhodamine B assay relative to control; assay type: functional; settings: NCI-H460, 48 h, read-out: Activity
[18] = Antiproliferative activity against human NCI-H23 cells assessed as cell growth at 10 uM measured after 48 hrs by sulforhodamine B assay relative to control; assay type: functional; settings: NCI-H23, 48 h, read-out: Activity
[19] = Aqueous solubility of the compound; assay type: physicochemical; settings: buffer
[20] = Antiproliferative activity against human NCI-H460 cells assessed as reduction in cell viability measured after 72 hrs by MTT assay; assay type: functional, cell-based; settings: NCI-H460, 72 h; for CC50: read-out: LC50 (the source's name)
[21] = Antiproliferative activity against human NCI-H226 cells assessed as cell growth at 10 uM measured after 48 hrs by sulforhodamine B assay relative to control; assay type: functional; settings: NCI-H226, 48 h, read-out: Activity

Q: Which GI50 [1] does the source give for `CCCCc1n(Cc2ccc3ccccc3n2)cc[n+]1Cc1ccc2ccccc2n1.[Cl-]` here?
A: 4.76 µM

Q: What about the IC50 [1] of the same compound?
A: 7 µM

Q: And the LC50 [1]?
A: 47.6 µM

Q: And the TGI [1]?
A: 18.5 µM

Q: And the GI50 [2]?
A: 0.339 µM

Q: And the TGI [2]?
A: 3.36 µM

Q: What about the CC50 [2] of the same compound?
A: 20.1 µM

Q: And the GI50 [3]?
A: 3.57 µM

Q: And the TGI [3]?
A: 16.3 µM

Q: And the CC50 [3]?
A: 42 µM

Q: And the GI50 [4]?
A: 2.37 µM

Q: And the TGI [4]?
A: 13.6 µM

Q: And the CC50 [4]?
A: 60.3 µM

Q: What about the growth at 10 µM [5] of the same compound?
A: 4.31%

Q: What about the IC50 [6] of the same compound?
A: 7 µM

Q: What about the growth at 10 µM [7] of the same compound?
A: 44.8%

Q: And the growth at 10 µM [8]?
A: 50.9%

Q: And the GI50 [9]?
A: 0.435 µM

Q: What about the LC50 (50% lethal concentration) [9] of the same compound?
A: 32 µM

Q: What about the TGI [9] of the same compound?
A: 4.19 µM

Q: What about the GI50 [10] of the same compound?
A: 0.48 µM

Q: What about the TGI [10] of the same compound?
A: 7.27 µM

Q: What about the CC50 [10] of the same compound?
A: 43.6 µM

Q: What about the GI50 [11] of the same compound?
A: 2.8 µM

Q: And the TGI [11]?
A: 12 µM

Q: And the CC50 [11]?
A: 39.8 µM

Q: What about the GI50 [12] of the same compound?
A: 4 µM

Q: And the TGI [12]?
A: 22 µM

Q: What about the CC50 [12] of the same compound?
A: 72.4 µM

Q: And the growth at 10 µM [13]?
A: 10%

Q: What about the IC50 [14] of the same compound?
A: < 1 µM

Q: And the growth at 10 µM [15]?
A: 25.2%

Q: And the growth at 10 µM [16]?
A: 41.4%

Q: And the growth at 10 µM [17]?
A: 16.5%

Q: And the growth at 10 µM [18]?
A: 4.77%

Q: What about the solubility [19] of the same compound?
A: > 80 mM

Q: And the GI50 [20]?
A: 2.17 µM

Q: And the IC50 [20]?
A: 5 µM

Q: And the TGI [20]?
A: 11.6 µM

Q: And the CC50 [20]?
A: 38.5 µM

Q: And the growth at 10 µM [21]?
A: 26.7%

Q: Which GI50 [1] does the source give for `CCc1n(Cc2ccc3ccccc3n2)cc[n+]1Cc1ccc2ccccc2n1.[Cl-]` here?
A: 5.27 µM

Q: And the IC50 [1]?
A: 11 µM

Q: And the LC50 [1]?
A: > 100 µM

Q: What about the TGI [1] of the same compound?
A: > 100 µM

Q: And the GI50 [2]?
A: 0.0183 µM

Q: And the TGI [2]?
A: 0.521 µM

Q: And the CC50 [2]?
A: 19.7 µM

Q: And the GI50 [3]?
A: 6.33 µM

Q: And the TGI [3]?
A: 41.9 µM

Q: And the CC50 [3]?
A: > 100 µM

Q: And the GI50 [4]?
A: 2.56 µM

Q: And the TGI [4]?
A: 30.8 µM

Q: And the CC50 [4]?
A: > 100 µM

Q: And the growth at 10 µM [5]?
A: -11.8%

Q: And the IC50 [6]?
A: 9 µM

Q: And the growth at 10 µM [7]?
A: 57.4%

Q: And the growth at 10 µM [8]?
A: 31.9%

Q: What about the GI50 [9] of the same compound?
A: 0.0837 µM

Q: What about the LC50 (50% lethal concentration) [9] of the same compound?
A: 37.9 µM

Q: What about the TGI [9] of the same compound?
A: 1.49 µM

Q: And the GI50 [10]?
A: 0.275 µM

Q: And the TGI [10]?
A: 8.66 µM

Q: What about the CC50 [10] of the same compound?
A: > 100 µM

Q: What about the GI50 [11] of the same compound?
A: 4.66 µM

Q: What about the TGI [11] of the same compound?
A: 31.5 µM

Q: And the CC50 [11]?
A: > 100 µM

Q: And the GI50 [12]?
A: 0.343 µM

Q: What about the TGI [12] of the same compound?
A: 41.5 µM

Q: What about the CC50 [12] of the same compound?
A: > 100 µM

Q: What about the growth at 10 µM [13] of the same compound?
A: -3.51%

Q: And the IC50 [14]?
A: < 1 µM

Q: What about the growth at 10 µM [15] of the same compound?
A: 40.9%

Q: And the growth at 10 µM [16]?
A: 73.1%

Q: And the growth at 10 µM [17]?
A: 34.8%

Q: And the growth at 10 µM [18]?
A: 16%

Q: What about the solubility [19] of the same compound?
A: > 80 mM

Q: What about the GI50 [20] of the same compound?
A: 0.511 µM

Q: What about the IC50 [20] of the same compound?
A: 6 µM

Q: And the TGI [20]?
A: 11.9 µM

Q: And the CC50 [20]?
A: 45.7 µM

Q: What about the growth at 10 µM [21] of the same compound?
A: 48.4%

Q: What does the source list for `CCCc1n(Cc2ccc3ccccc3n2)cc[n+]1Cc1ccc2ccccc2n1.[Cl-]`?
A: GI50 [1]: 6.78 µM; IC50 [1]: 10 µM; LC50 [1]: > 100 µM; TGI [1]: > 100 µM; GI50 [2]: 0.399 µM; TGI [2]: 3.23 µM; CC50 [2]: 23.2 µM; GI50 [3]: 4.68 µM; TGI [3]: 41.9 µM; CC50 [3]: > 100 µM; GI50 [4]: 3.4 µM; TGI [4]: 34.8 µM; CC50 [4]: > 100 µM; growth at 10 µM [5]: 16%; IC50 [6]: 7 µM; growth at 10 µM [7]: 62.8%; growth at 10 µM [8]: 58.1%; GI50 [9]: 0.601 µM; LC50 (50% lethal concentration) [9]: 27.1 µM; TGI [9]: 4.3 µM; GI50 [10]: 0.865 µM; TGI [10]: 15 µM; CC50 [10]: > 100 µM; GI50 [11]: 4.28 µM; TGI [11]: 19.4 µM; CC50 [11]: 62.6 µM; GI50 [12]: 12.5 µM; TGI [12]: > 100 µM; CC50 [12]: > 100 µM; growth at 10 µM [13]: 22.8%; IC50 [14]: 1 µM; growth at 10 µM [15]: 51.7%; growth at 10 µM [16]: 72.1%; growth at 10 µM [17]: 34.2%; growth at 10 µM [18]: 13%; solubility [19]: > 80 mM; GI50 [20]: 2.56 µM; IC50 [20]: 5 µM; TGI [20]: 11.7 µM; CC50 [20]: 39.8 µM; growth at 10 µM [21]: 38%
